This is an account of results in patent US10092551B2, “Spiro-thiazolones” (Hoffmann-La Roche Inc., priority 2014, dated 2018).

The target in the assay is human V1a receptor (Homo sapiens (Human), UniProt P37288). The assay is described as follows: human V1a receptor binding studies (3H-Vasopressin, SPA beads). Conditions: membranes of HEK293 cells transiently transfected with human V1a receptor, Ki by Cheng-Prussoff. As for the experimental part: The human V1a receptor was cloned by RT-PCR from total human liver RNA. The coding sequence was subcloned in an expression vector after sequencing to confirm the identity of the amplified sequence. […] Cell membranes were prepared from HEK293 cells transiently transfected with the expression vector and grown in 20 liter fermenters with the following protocol.
Chain of human V1a receptor (P37288 whole entry): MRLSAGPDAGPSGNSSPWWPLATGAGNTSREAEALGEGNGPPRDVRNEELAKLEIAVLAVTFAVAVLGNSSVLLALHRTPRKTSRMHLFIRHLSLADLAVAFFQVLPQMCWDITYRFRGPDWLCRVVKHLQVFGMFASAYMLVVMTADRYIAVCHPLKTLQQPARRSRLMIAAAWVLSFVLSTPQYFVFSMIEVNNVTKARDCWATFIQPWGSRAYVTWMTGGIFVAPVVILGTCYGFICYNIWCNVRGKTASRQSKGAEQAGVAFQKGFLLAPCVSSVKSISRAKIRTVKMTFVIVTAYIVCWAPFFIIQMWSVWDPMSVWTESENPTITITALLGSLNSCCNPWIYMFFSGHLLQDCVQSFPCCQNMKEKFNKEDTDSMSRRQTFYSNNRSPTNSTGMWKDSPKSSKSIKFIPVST
50 g of cells are re-suspended in 30 ml freshly prepared ice cold Lysis buffer (50 mM HEPES, 1 mM EDTA, 10 mM MgCl2 adjusted to pH=7.4+complete cocktail of protease inhibitor (Roche Diagnostics)). Homogenized with Polytron for 1 min and sonicated on ice for 2×2 minutes at 80% intensity (Vibracell sonicator). The preparation is centrifuged 20 min at 500 g at 4° C., the pellet is discarded and the supernatant centrifuged 1 hour at 43,000 g at 4° C. (19,000 rpm). The pellet is re-suspended in 12.5 ml Lysis buffer+12.5 ml Sucrose 20% and homogenized using a Polytron for 1-2 min. The protein concentration is determined by the Bradford method and aliquots are stored at −80° C. until use. For binding studies 60 mg Yttrium silicate SPA beads (Amersham) are mixed with an aliquot of membrane in binding buffer (50 mM Tris, 120 mM NaCl, 5 mM KCl, 2 mM CaCl2, 10 mM MgCl2) for 15 minutes with mixing. 50 μl of bead/membrane mixture is then added to each well of a 96 well plate, followed by 50 μl of 4 nM 3H-Vasopressin (American Radiolabeled Chemicals). For total binding measurement 100 μl of binding buffer are added to the respective wells, for non-specific binding 100 μl of 8.4 mM cold vasopressin and for compound testing 100 μl of a serial dilution of each compound in 2% DMSO. The plate is incubated 1 h at room temperature, centrifuged 1 min at 1000 g and counted on a Packard Top-Count. Non-specific binding counts are subtracted from each well and data is normalized to the maximum specific binding set at 100%. To calculate an IC 50 the curve is fitted using a non-linear regression model (XLfit) and the Ki is calculated using the Cheng-Prussoff equation.
On to `CC/C(=C1/SC(N2CCC3(CC2)OCc2ccccc23)=NC1=O)c1ccc(Cl)cc1` [Example 24, (5Z)-5-[1-(4-chlorophenyl)propylidene]-2-(1′H,3H-spiro[2-benzofuran-1,4′-piperidin]-1′-yl)-1,3-thiazol-4(5H)-one], for which the “pKi hV1a” value is reported as 9.1. As for `CC/C(=C1\SC(N2CCC3(CC2)OCc2ccccc23)=NC1=O)c1ccc(Cl)cc1` [Example 25, (5E)-5-[1-(4-chlorophenyl)propylidene]-2-(1′H,3H-spiro[2-benzofuran-1,4′-piperidin]-1′-yl)-1,3-thiazol-4(5H)-one], the figure is 8.2; as for `C/C(=C1/SC(N2CCC3(CC2)OCc2ccccc23)=NC1=O)c1ccc(Cl)cc1` [Example 26, (5Z)-5-[1-(4-chlorophenyl)ethylidene]-2-(1′H,3H-spiro[2-benzofuran-1,4′-piperidin]-1′-yl)-1,3-thiazol-4(5H)-one], 9.2; as for `C/C(=C1\SC(N2CCC3(CC2)OCc2ccccc23)=NC1=O)c1ccc(Cl)cc1` [Example 27, (5E)-5-[1-(4-chlorophenyl)ethylidene]-2-(1′H,3H-spiro[2-benzofuran-1,4′-piperidin]-1′-yl)-1,3-thiazol-4(5H)-one], 8.3. Turning to `C/C(=C1\SC(N2CCC3(CC2)OCc2ccccc23)=NC1=O)C1CCCCC1` [Example 28, (5E)-5-(1-cyclohexylethylidene)-2-(1′H,3H-spiro[2-benzofuran-1,4′-piperidin]-1′-yl)-1,3-thiazol-4(5H)-one], the “pKi hV1a” value stood at 7.9.

Regarding `C/C(=C1/SC(N2CCC3(CC2)OCc2ccccc23)=NC1=O)C1CCCCC1` [Example 29, (5Z)-5-(1-cyclohexylethylidene)-2-(1′H,3H-spiro[2-benzofuran-1,4′-piperidin]-1′-yl)-1,3-thiazol-4(5H)-one], the “pKi hV1a” value was determined as 8.7. The same measure for `CC(C)=C1SC(N2CCC3(CC2)OCc2ccccc23)=NC1=O` [Example 30, 5-(propan-2-ylidene)-2-(1′H,3H-spiro[2-benzofuran-1,4′-piperidin]-1′-yl)-1,3-thiazol-4(5H)-one]: 7.8.

With `CC/C(=C1/SC(N2CCC3(CC2)OCc2ccccc23)=NC1=O)c1ccncc1` [Example 31, (5Z)-5-[1-(pyridin-4-yl)propylidene]-2-(1′H,3H-spiro[2-benzofuran-1,4′-piperidin]-1′-yl)-1,3-thiazol-4(5H)-one], the “pKi hV1a” value is on record as 8.4. As for `CC/C(=C1\SC(N2CCC3(CC2)OCc2ccccc23)=NC1=O)c1ccncc1` [Example 32, (5E)-5-[1-(pyridin-4-yl)propylidene]-2-(1′H,3H-spiro[2-benzofuran-1,4′-piperidin]-1′-yl)-1,3-thiazol-4(5H)-one], the “pKi hV1a” value is 7.9. On to `C/C(=C1/SC(N2CCC3(CC2)OCc2ccccc23)=NC1=O)c1ccncc1` [Example 33, (5Z)-5-[1-(pyridin-4-yl)ethylidene]-2-(1′H,3H-spiro[2-benzofuran-1,4′-piperidin]-1′-yl)-1,3-thiazol-4(5H)-one], for which the “pKi hV1a” value is given as 8.3. As for `C/C(=C1/SC(N2CCC3(CC2)OCc2ccccc23)=NC1=O)c1ccc[nH]1` [Example 34, (5E/Z)-5-[1-(1H-pyrrol-2-yl)ethylidene]-2-(1′H,3H-spiro[2-benzofuran-1,4′-piperidin]-1′-yl)-1,3-thiazol-4(5H)-one], the figure is 9.2; as for `C/C(=C1/SC(N2CCC3(CC2)OCc2ccccc23)=NC1=O)c1ccco1` [Example 35, (5Z)-5-[1-(furan-2-yl)ethylidene]-2-(1′H,3H-spiro[2-benzofuran-1,4′-piperidin]-1′-yl)-1,3-thiazol-4(5H)-one], 8.9; as for `C/C(=C1\SC(N2CCC3(CC2)OCc2ccccc23)=NC1=O)c1ccncc1` [Example 36, (5E)-5-[1-(pyridin-4-yl)ethylidene]-2-(1′H,3H-spiro[2-benzofuran-1,4′-piperidin]-1′-yl)-1,3-thiazol-4(5H)-one], 7.5. As for `C/C(=C1/SC(N2CCC3(CC2)OCc2ccccc23)=NC1=O)c1cccn1C` [Example 37, (5Z)-5-[1-(1-methyl-1H-pyrrol-2-yl)ethylidene]-2-(1′H,3H-spiro[2-benzofuran-1,4′-piperidin]-1′-yl)-1,3-thiazol-4(5H)-one], the figure is 9.1; as for `C/C(=C1/SC(N2CCC3(CC2)OCc2ccccc23)=NC1=O)c1ccccn1` [Example 38, (5Z)-5-[1-(pyridin-2-yl)ethylidene]-2-(1′H,3H-spiro[2-benzofuran-1,4′-piperidin]-1′-yl)-1,3-thiazol-4(5H)-one], 8.8. Take `C/C(=C1/SC(N2CCC3(CC2)OCc2ccccc23)=NC1=O)c1cccnc1` [Example 39, (5Z)-5-[1-(pyridin-3-yl)ethylidene]-2-(1′H,3H-spiro[2-benzofuran-1,4′-piperidin]-1′-yl)-1,3-thiazol-4(5H)-one]: the “pKi hV1a” value came to 8.9.

As for `C/C(=C1/SC(N2CCC3(CC2)OCc2ccccc23)=NC1=O)c1ccccc1F` [Example 40, (5E/Z)-5-[1-(2-fluorophenyl)ethylidene]-2-(1′H,3H-spiro[2-benzofuran-1,4′-piperidin]-1′-yl)-1,3-thiazol-4(5H)-one], the “pKi hV1a” value is recorded as 8.9. In the case of `CC(C)(C)OC(=O)N1CCC(=C2SC(N3CCC4(CC3)OCc3ccccc34)=NC2=O)CC1` [Example 41, tert-butyl 4-[4-oxo-2-(1′H,3H-spiro[2-benzofuran-1,4′-piperidin]-1′-yl)-1,3-thiazol-5(4H)-ylidene]piperidine-1-carboxylate], the “pKi hV1a” value is on record as 7.6. Take `C/C(=C1/SC(N2CCC3(CC2)OCc2ccccc23)=NC1=O)C1CC1` [Example 42, (5E/Z)-5-(1-cyclopropylethylidene)-2-(1′H,3H-spiro[2-benzofuran-1,4′-piperidin]-1′-yl)-1,3-thiazol-4(5H)-one]: the “pKi hV1a” value came out at 8.4. As for `C/C(=C1/SC(N2CCC3(CC2)OCc2ccccc23)=NC1=O)C1CCCC1` [Example 43, (5E/Z)-5-(1-cyclopentylethylidene)-2-(1′H,3H-spiro[2-benzofuran-1,4′-piperidin]-1′-yl)-1,3-thiazol-4(5H)-one], the figure is 8.8; as for `O=C1N=C(N2CCC3(CC2)OCc2ccccc23)SC1=C1CCOCC1` [Example 44, 2-(1′H,3H-spiro[2-benzofuran-1,4′-piperidin]-1′-yl)-5-(tetrahydro-4H-pyran-4-ylidene)-1,3-thiazol-4(5H)-one], 8.1; as for `O=C1N=C(N2CCC3(CC2)OCc2ccccc23)S/C1=C1/CCCc2ccccc21` [Example 45, (5Z)-5-(3,4-dihydronaphthalen-1(2H)-ylidene)-2-(1′H,3H-spiro[2-benzofuran-1,4′-piperidin]-1′-yl)-1,3-thiazol-4(5H)-one], 8.7. `O=C1N=C(N2CCC3(CC2)OCc2ccccc23)S/C1=C1/CCc2ccccc21` [Example 46, (5Z)-5-(2,3-dihydro-1H-inden-1-ylidene)-2-(1′H,3H-spiro[2-benzofuran-1,4′-piperidin]-1′-yl)-1,3-thiazol-4(5H)-one]: the “pKi hV1a” value is on record as 8.3. With `O=C1N=C(N2CCC3(CC2)OCc2ccccc23)S/C1=C1/CCCCc2ccccc21` [Example 47, (5Z)-2-(1′H,3H-spiro[2-benzofuran-1,4′-piperidin]-1′-yl)-5-(6,7,8,9-tetrahydro-5H-benzo[7]annulen-5-ylidene)-1,3-thiazol-4(5H)-one], the “pKi hV1a” value was found to be 9.3. `C/C(=C1/SC(N2CCC3(CC2)OCc2ccccc23)=NC1=O)c1ccnc(Cl)c1` [Example 48, (5E/Z)-5-[1-(2-chloropyridin-4-yl)ethylidene]-2-(1′H,3H-spiro[2-benzofuran-1,4′-piperidin]-1′-yl)-1,3-thiazol-4(5H)-one]: the “pKi hV1a” value was 8.6. For `C/C(=C1/SC(N2CCC3(CC2)OCc2ccccc23)=NC1=O)c1ccc(Cl)nc1` [Example 49, (5E/Z)-5-[1-(6-chloropyridin-3-yl)ethylidene]-2-(1′H,3H-spiro[2-benzofuran-1,4′-piperidin]-1′-yl)-1,3-thiazol-4(5H)-one], the “pKi hV1a” value came out at 9.1. Regarding `COC/C(C)=C1\SC(N2CCC3(CC2)OCc2ccccc23)=NC1=O` [Example 50, (5E/Z)-5-(1-methoxypropan-2-ylidene)-2-(1′H,3H-spiro[2-benzofuran-1,4′-piperidin]-1′-yl)-1,3-thiazol-4(5H)-one], the “pKi hV1a” value is recorded as 8.4.

Consider `C/C(CF)=C1/SC(N2CCC3(CC2)OCc2ccccc23)=NC1=O` [Example 51, (5E/Z)-5-(1-fluoropropan-2-ylidene)-2-(1′H,3H-spiro[2-benzofuran-1,4′-piperidin]-1′-yl)-1,3-thiazol-4(5H)-one], for which the “pKi hV1a” value worked out at 7.9.
